From patent publication US4770998A, “Biochemical assay of aldehydes” (Mobil Oil Corporation, priority 1985, dated 1988)

Columns and labels:
[1] = tested on: Mouse lymphoma L5178Y cells (clone 3.7.2C); assay: Mouse lymphoma mutagenicity assay (TK locus) with total growth, with S-9 activation, with FDH plus NAD; conditions: 2.5 and 5.0 ug/ml
Method: Mouse lymphoma L5178Y cells (clone 3.7.2C) ATCC CRL 9518 are preferred since these indicator cells are useful for mutagenicity as well as for toxicity assay.
The L5178Y mouse lymphoma indicator cells (clone 3.7.2C) are stored in liquid nitrogen. Cultures are thawed and are maintained in logarithmic growth by serial subculturing for up to six weeks. Cultures are grown at 37° C. in either a shaker incubator or a roller-harvester incubator. […] Cultures are cleansed on a weekly basis, as described by Clive et al. (1979), to reduce the frequency of spontaneous TK-/- mutants and thus maintain minimum mutant frequencies in the negative controls.
The medium for suspension culture of the cells is Fischer's medium (for leukemic mice) supplemented with heat-inactivated horse serum (10%, v/v), sodium pyruvate (1 mM) and Pluronic (0.1%, w/v). […]
Logarithmically growing cultures of recently cleansed lymphoma cells are counted and adjusted to 1×10^6 cells/ml for use in the assays. […]
An expression period of 2 days is used to allow recovery, growth and expression of the TK-/- phenotype. Cell population densities will be determined on Day 1 (approximately 24 hours after treatment) and is adjusted to 3×10^5 cells/ml to maintain optimal growth rates. Cell population densities are then determined on Day 2 (approximately 44 hours after treatment), and appropriated cultures selected for mutant analysis. […]

[2] = tested on: Mouse lymphoma L5178Y cells (clone 3.7.2C); assay: Mouse lymphoma mutagenicity assay (TK locus) with total growth, nonactivated (without S-9), with and without FDH plus NAD; type: cell-based
Method: All tests preferably are performed in duplicate.
In this example the dose-dependent mutagenic effect of formaldehyde on lymphoma cultures, both with and without FDH plus NAD, was investigated in the absence of S-9 activation.

[3] = known stoichiometric release; cited from earlier work

In the case of `Cc1c2ccccc2c(C)c2c1ccc1ccccc12` [DMBA, 7,12-dimethylbenz[a]anthracene], the “reduction of mutagenicity with addition of FDH plus NAD” value [1] is reported as “No reduction of toxicity or mutagencity” and the “reduction of toxicity with addition of FDH plus NAD” value [1] is reported as “No reduction of toxicity or mutagencity”.

For `CCOS(C)(=O)=O` [EMS, ethylmethane sulfonate], the “reduction of mutagenicity with addition of FDH plus NAD” value ([2]; 0.5 and 1.0 ul/ml, without S-9) was “No reduction of toxicity or mutagenicity” and the “reduction of toxicity with addition of FDH plus NAD” value ([2]; 0.5 and 1.0 ul/ml, without S-9) was “No reduction of toxicity or mutagenicity”.

For `O=[N+]([O-])C(CO)(CO)CO` [TNM, Tris-(hydroxymethyl) nitromethane], the “total growth / toxicity” value [2] was “Dose dependent increases in toxicity and mutagenicity”, the “toxicity with FDH and NAD” value [2] was “absent” and the “mutagenicity with FDH and NAD” value ([2]; supplemented with FDH and NAD, without S-9) was “absent”. The “mutant frequency / mutagenicity” value ([2]; without FDH/NAD, without S-9) was “Dose dependent increases in toxicity and mutagenicity” and the formaldehyde released [3] was 3 mols of formaldehyde per mol of TNM.
